One may read the IC50 as the point on the concentration scale where inhibition reaches its midpoint.

Values joined by “and” are separate entries in the source; they are usually repeats but may differ in a detail not shown here. Identical values can stand only once.

IC50 data for 23 compounds are collected here from patent publication US20230117592A1 (SRI International, priority 2019, published 2023).

In one test the target is T1, 5-LOX (Homo sapiens, UniProt P09917).
T1 sequence (P09917 1-674): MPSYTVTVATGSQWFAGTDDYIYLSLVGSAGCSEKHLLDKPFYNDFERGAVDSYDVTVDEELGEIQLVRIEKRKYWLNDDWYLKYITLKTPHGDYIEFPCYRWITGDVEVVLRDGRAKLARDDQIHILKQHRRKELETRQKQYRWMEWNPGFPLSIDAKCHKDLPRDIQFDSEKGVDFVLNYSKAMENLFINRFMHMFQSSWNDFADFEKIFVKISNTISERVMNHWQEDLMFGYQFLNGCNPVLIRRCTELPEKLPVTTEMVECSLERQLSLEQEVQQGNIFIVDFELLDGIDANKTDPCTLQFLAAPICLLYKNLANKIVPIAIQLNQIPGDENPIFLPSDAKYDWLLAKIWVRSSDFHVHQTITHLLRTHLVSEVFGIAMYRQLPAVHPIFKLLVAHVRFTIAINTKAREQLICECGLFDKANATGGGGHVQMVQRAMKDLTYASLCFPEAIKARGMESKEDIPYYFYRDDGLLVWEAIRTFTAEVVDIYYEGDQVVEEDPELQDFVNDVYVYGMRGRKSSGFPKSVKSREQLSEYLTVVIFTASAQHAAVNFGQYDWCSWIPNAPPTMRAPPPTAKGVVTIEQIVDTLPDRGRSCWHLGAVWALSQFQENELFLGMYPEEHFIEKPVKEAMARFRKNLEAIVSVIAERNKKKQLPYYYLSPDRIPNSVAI
Nature of the test: 5-LOX fluorescent assay (in vitro lipoxygenase inhibition). It counts as biochemical. The conditions noted are these: recombinant 5-LOX cell lysate, 20 μM AA, DHR123 fluorescence; several values in a cell = repeat determinations; read-out: IC50 (μM) values for in vitro lipoxygenase inhibition, 5-LOX. A digest of the protocol:
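Recombinant human 5-LOX cell lysate pre-incubated 15 min with inhibitor in 50 mM Tris pH 7.5, 0.1 mM EDTA, 0.3 mM CaCl2. Reaction started with 20 μM arachidonic acid plus 100 μM ATP, with 1 μM DHR123 as fluorescent probe. IC50 from percent inhibition per dose via 4-parameter logistic or sigmoidal dose-response fit.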

For the next test, the target named is T2, 12-LOX (Homo sapiens, UniProt P18054).
T2 sequence (P18054 1-663): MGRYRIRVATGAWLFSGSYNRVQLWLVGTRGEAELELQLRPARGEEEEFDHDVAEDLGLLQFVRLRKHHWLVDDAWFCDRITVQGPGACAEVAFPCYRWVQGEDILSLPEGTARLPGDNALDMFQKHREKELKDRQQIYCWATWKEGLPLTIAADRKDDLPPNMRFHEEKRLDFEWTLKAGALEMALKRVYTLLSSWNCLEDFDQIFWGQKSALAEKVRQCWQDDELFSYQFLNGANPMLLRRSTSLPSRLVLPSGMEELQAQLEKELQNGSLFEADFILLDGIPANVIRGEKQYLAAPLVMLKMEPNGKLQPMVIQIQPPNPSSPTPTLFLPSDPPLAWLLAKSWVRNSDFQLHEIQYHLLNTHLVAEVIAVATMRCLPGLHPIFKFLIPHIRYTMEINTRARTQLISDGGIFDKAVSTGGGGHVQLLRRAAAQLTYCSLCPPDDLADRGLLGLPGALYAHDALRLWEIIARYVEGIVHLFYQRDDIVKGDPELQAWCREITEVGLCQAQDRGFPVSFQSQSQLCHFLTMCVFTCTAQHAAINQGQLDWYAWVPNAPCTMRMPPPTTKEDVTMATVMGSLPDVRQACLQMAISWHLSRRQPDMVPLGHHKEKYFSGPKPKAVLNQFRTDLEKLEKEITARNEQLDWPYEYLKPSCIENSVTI
The test is described as follows: 12-LOX fluorescent assay (in vitro lipoxygenase inhibition). The conditions noted are these: 100 nM recombinant 12-LOX, 20 μM AA, DHR123 fluorescence; several values in a cell = repeat determinations; read-out: IC50 (μM) values for in vitro lipoxygenase inhibition, 12-LOX. Type of test: biochemical. In outline:
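Fluorescent assay in 50 mM Tris pH 7.5, 0.05% Tween-20, with 100 nM recombinant 12-LOX preincubated 15 min with inhibitor. Reaction was started with 20 μM arachidonic acid substrate and 1 μM DHR123. Percent inhibition per dose was fitted by 4-parameter logistic or sigmoidal dose-response for IC50.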

On to `c1ncn(CC2(CNc3ccc(NCC4CCCCC4)cc3)COC2)n1` [SS20308-0242-01, N^1-((3-((1H-1,2,4-triazol-1-yl)methyl)oxetan-3-yl)methyl)-N^4-(cyclohexylmethyl)benzene-1,4-diamine], for which the IC50 on 5-LOX stood at 0.09 µM; at 12-LOX it was 0.05 µM.
As for `FC(F)(F)C(Nc1ccc(NCCn2cncn2)cn1)c1ccccc1` (stereo not shown) [SS20308-0245-01, N^5-(2-(1H-1,2,4-triazol-1-yl)ethyl)-N^2-(2,2,2-trifluoro-1-phenylethyl)pyridine-2,5-diamine], the IC50 stood at 1.19 µM at 5-LOX and 0.51 µM on 12-LOX.
Consider `Fc1ccc(CNc2ccc(NCCn3cncn3)cn2)cc1` [SS20308-0246-01, N^5-(2-(1H-1,2,4-triazol-1-yl)ethyl)-N^2-(4-fluorobenzyl)pyridine-2,5-diamine], for which the figures for the IC50 on 5-LOX and at 12-LOX were 0.51 µM and 0.08 µM, respectively.
Turning to `FC1(F)CCC(CNc2ccc(NCCn3cncn3)cn2)CC1` [SS20308-0247-01, N^5-(2-(1H-1,2,4-triazol-1-yl)ethyl)-N^2-((4,4-difluorocyclohexyl)methyl)pyridine-2,5-diamine], the IC50 was found to be 0.63 µM at 5-LOX and 0.13 µM on 12-LOX.
On to `Fc1ccc(Nc2ccc(NCCn3cncn3)cn2)cc1` [SS20308-0248-01, N^5-(2-(1H-1,2,4-triazol-1-yl)ethyl)-N^2-(4-fluorophenyl)pyridine-2,5-diamine], for which the figures for the IC50 at 5-LOX and on 12-LOX were 0.63 µM and 0.1 µM, respectively.
Turning to `Fc1ccc(CNc2cccc(NCCn3cncn3)n2)cc1` [SS20308-0249-01, N^2-(2-(1H-1,2,4-triazol-1-yl)ethyl)-N^6-(4-fluorobenzyl)pyridine-2,6-diamine], the IC50 was determined as 1.59 µM at 5-LOX and 0.37 µM at 12-LOX.
In the case of `FC1(F)CCC(CNc2cccc(NCCn3cncn3)n2)CC1` [SS20308-0250-01, N^2-(2-(1H-1,2,4-triazol-1-yl)ethyl)-N^6-((4,4-difluorocyclohexyl)methyl)pyridine-2,6-diamine], the figures for the IC50 on 5-LOX and at 12-LOX were 1.26 µM and 0.32 µM, respectively.
Take `CN(CCn1cncn1)c1cccc(Nc2ccc(F)cc2)c1` [SS20308-0252-01, N^1-(2-(1H-1,2,4-triazol-1-yl)ethyl)-N^3-(4-fluorophenyl)-N^1-methylbenzene-1,3-diamine]: the 50% inhibitory concentration (IC50) on 5-LOX worked out at 1.09 µM; at 12-LOX, 0.26 µM.
As to `CN(C)CCCc1c(NCc2ccc(F)cc2)cccc1-c1cccc2c1NCC2` [SS20308-0253-01, 2-(3-(dimethylamino)propyl)-N-(4-fluorobenzyl)-3-(indolin-7-yl)aniline], the IC50 was determined as 0.31 µM on 5-LOX and 0.29 µM on 12-LOX.
Take `FC1(F)CCC(Nc2ccc(NCC3(Cn4cncn4)COC3)cc2)CC1` [SS20308-0263-01, N^1-((3-((1H-1,2,4-triazol-1-yl)methyl)oxetan-3-yl)methyl)-N^4-(4,4-difluorocyclohexyl) benzene-1,4-diamine]: the concentration for half-maximal inhibition (IC50) at 5-LOX was 0.22 µM and 0.12 µM; at 12-LOX, 0.06 µM and 0.03 µM.
As to `Fc1c(Nc2ccccc2)ccc2c1CCN2CCn1cncn1` [SS20308-0264-01, 1-(2-(1H-1,2,4-triazol-1-yl)ethyl)-4-fluoro-N-phenylindolin-5-amine], the IC50 on 5-LOX is 0.27 µM; at 12-LOX, 0.05 µM.
As for `Cc1cc(Nc2ccc(F)cc2Cl)ccc1NCC1(Cn2cncn2)COC1` [SS20308-0272-01, N1-((3-((1H-1,2,4-triazol-1-yl)methyl)oxetan-3-yl)methyl)-N4-(2-chloro-4-fluorophenyl)-2-methylbenzene-1,4-diamine], the IC50 on 5-LOX was 0.22 µM and 0.28 µM and 0.11 µM and 0.26 µM; at 12-LOX it was 30 nM and 80 nM and 60 nM (2×).
As to `CC1(C)CC(Nc2ccc(NCCn3cncn3)cc2)c2ccccc21` (stereo not shown) [SS20308-0275-01, N^1-(2-(1H-1,2,4-triazol-1-yl)ethyl)-N^4-(3,3-dimethyl-2,3-dihydro-1H-inden-1-yl)benzene-1,4-diamine], the IC50 on 5-LOX is 0.26 µM and 0.1 µM; at 12-LOX, 0.05 µM and 0.04 µM.
Consider `Fc1ccc(Nc2ccc(NCC3(Cn4cncn4)COC3)c(C(F)(F)F)c2)c(Cl)c1` [SS20308-0279-01, N^1-((3-((1H-1,2,4-triazol-1-yl)methyl)oxetan-3-yl)methyl)-N^4-(2-chloro-4-fluorophenyl)-2-(trifluoromethyl)benzene-1,4-diamine], for which the IC50 on 5-LOX is 0.64 µM; at 12-LOX, 0.28 µM.
Consider `Cc1cccc(Nc2ccc(NCC3(Cn4cncn4)COC3)c(C)c2)n1` [SS20308-0289-01, N^1-((3-((1H-1,2,4-triazol-1-yl)methyl)oxetan-3-yl)methyl)-2-methyl-N^4-(6-methylpyridin-2-yl)benzene-1,4-diamine], for which the IC50 on 5-LOX is 0.25 µM and 0.61 µM; at 12-LOX it was 0.07 µM and 0.15 µM.
As to `Fc1ccc(Nc2ccc(NCC3(Cn4cncn4)COC3)c(C(F)(F)F)c2)cc1` [SS20308-0296-01, N^1-((3-((1H-1,2,4-triazol-1-yl)methyl)oxetan-3-yl)methyl)-N^4-(4-fluorophenyl)-2-(trifluoromethyl)benzene-1,4-diamine], the IC50 at 5-LOX amounted to 0.08 µM; at 12-LOX, 0.06 µM.
`CN(C)CCCNc1ccc(NC(c2ccccc2)C(F)(F)F)cc1F` (stereo not shown) [SS20308-0302-01, N^1-(3-(dimethylamino)propyl)-2-fluoro-N^4-(2,2,2-trifluoro-1-phenylethyl)benzene-1,4-diamine]: the values for the IC50 at 5-LOX and on 12-LOX were 0.25 µM and 0.21 µM, respectively.
On to `Cc1cc(Nc2ccc(F)c(Cl)c2)ccc1NCC1(Cn2cncn2)COC1` [SS20308-0307-01, N^1-((3-((1H-1,2,4-triazol-1-yl)methyl)oxetan-3-yl)methyl)-N^4-(3-chloro-4-fluorophenyl)-2-methylbenzene-1,4-diamine], for which the IC50 at 5-LOX is 0.05 µM and 0.06 µM; at 12-LOX, 0.02 µM and 0.06 µM.
For `Cc1cc(Nc2ccc(Cl)c(F)c2)ccc1NCC1(Cn2cncn2)COC1` [SS20308-0308-01, N^1-((3-((1H-1,2,4-triazol-1-yl)methyl)oxetan-3-yl)methyl)-N^4-(4-chloro-3-fluorophenyl)-2-methylbenzene-1,4-diamine], the IC50 is 0.04 µM and 0.03 µM and 0.05 µM and 0.09 µM on 5-LOX; 20 nM (2×) and 50 nM and 60 nM at 12-LOX.
In the case of `Cc1cc(Nc2ccc(F)cc2Cl)ccc1NCC1(CN2CCOCC2)COC1` [SS20308-0309-01, N^4-(2-chloro-4-fluorophenyl)-2-methyl-N^1-((3-(morpholinomethyl)oxetan-3-yl)methyl) benzene-1,4-diamine], the IC50 at 5-LOX is 0.09 µM and 0.12 µM; at 12-LOX it was 0.04 µM and 0.08 µM.
Turning to `Fc1cc(Nc2ccccc2Cl)ccc1NCC1(Cn2cncn2)COC1` [SS20308-0313-01, N^1-((3-((1H-1,2,4-triazol-1-yl)methyl)oxetan-3-yl)methyl)-N^4-(2-chlorophenyl)-2-fluorobenzene-1,4-diamine], the IC50 at 5-LOX stood at 0.35 µM; at 12-LOX it was 0.11 µM.
Consider `FC(F)(F)C(Nc1ccc(NCCCN2CCOCC2)c(C2CCOCC2)c1)c1ccccc1` (stereo not shown) [SS20308-0315-01, N^1-(3-morpholinopropyl)-2-(tetrahydro-2H-pyran-4-yl)-N^4-(2,2,2-trifluoro-1-phenylethyl)benzene-1,4-diamine], for which the results for the IC50 at 5-LOX and on 12-LOX were 0.07 µM and 0.06 µM, respectively.
As to `Fc1ccc(Nc2ccc(NCCCN3CCOCC3)c(C(F)(F)F)c2)cc1` [SS20308-0316-01, N^4-(4-fluorophenyl)-N^1-(3-morpholinopropyl)-2-(trifluoromethyl)benzene-1,4-diamine], the values for the 50% inhibitory concentration (IC50) at 5-LOX and on 12-LOX were 0.07 µM and 0.03 µM, respectively.
